Entries after “also recorded” stand apart in the source; their conditions may differ. Like-named read-outs stand apart in the source and are kept apart here. One block for each compound: values may come before it.
Experiments:
[1] = test system: T24 cells; experiment: Sensitivity of T24 cells to cisplatin with TP receptor antagonists; format: cell-based, human
Method: SV-HUC and T24 cells were seeded at 5,000 cells per well in 96-well plates, and then treated with either compound or vehicle (ethanol) alone. The number of viable cells were quantified at the indicated time points, using the MTT (3-(4,5-Dimethyl-2-thiazolyl)-2,5-diphenyl-2H-tetrazolium bromide thiazole blue) assay, performed in quadruplicate, according to the manufacturer's instructions (Sigma-Aldrich). Optical density (OD) was measured at wavelength of 550 nm with reference wavelength of 690 nm.
Cell viability was analyzed under the microscope at 200× using trypan blue staining. Flow cytometric measurements of apoptosis were as follows. After 12 hours treatment with solvent control or TP receptor antagonists, cells were washed twice in ice cold phosphate buffered saline (PBS) and resuspended in binding buffer (10 mM HEPES, 140 mM NaCl, 2.5 mM CaCl2), at 1×10^6 cells in a 400 μl volume of binding buffer, in duplicate. Cells were incubated with 10 μl of human annexin V-phycoerythrin (PE) (BD Bioscience Inc.) for 15 min at room temperature in dark. […] The TUNEL assay was performed following the protocol of the TUNEL kit's manufacturer (Roche Diagnostics).

[2] = test system: tumor cell; experiment: Combination with paclitaxel in vitro, tumor cell death; format: cell-based; settings: antagonist added to paclitaxel in vitro
[3] = test system: PTN mRNA; experiment: PTN mRNA expression after receptor antagonist / agonist; format: cell-based
Excerpt: (§1) FIGS. 14A-F. TP-β regulation of pleiotrophin (PTN). […] (FIG. 14D) PTN mRNA reduction after PTXA2 treatment. The PTN mRNA levels are restored following the co-treatment with U46619. (FIG. 14E) shRNAi mediated knockdown of β-arrestin-2 reduced agonist dependent increase in PTN mRNA in HT-1376 cells (PTEN:wt), and UM-UC-3 cells (PTEN:minus). (FIG. 14F) Effect of U46619 on JNK1/2 and FOXO3a phosphorylation.

[4] = test system: T24 cells; experiment: Western blot of FAK and ERK phosphorylation in T24 cells; format: cell-based, human; settings: serum starved 12 hrs, treated 1 hr
Method: FIG. 6. Effect of TP receptor agonist (U46619) and antagonist (PTXA2) treatment on phosphorylation of FAK and ERK. T24 cells were serum starved for 12 hrs then treated with PTXA2 or U46619 for 1 hr. Tyrosine phosphorylation of FAK was assessed with western blot analysis on […] of cell lysate using anti-FAK pY397 (BD Bioscience) and pERK using a pERK specific antibody.
(§2) Tumor and normal bladder tissues were snap-frozen in liquid nitrogen within 30 minutes after the surgery. Frozen sections were stained with hematoxylin and eosin and samples identified that had at least 70% tumor cells were selected for further studies. Pulverized tissue powders were lysed in RIPA buffer (150 mM NaCl, 50 mM Tris-HCl [pH 8.0], 1% Triton X100, 0.1% SDS, 1% deoxycholate and protease inhibitor cocktail [Complete Protease Inhibitors, Roche]) for 15 minutes on ice. Equal amounts of total protein (40 μg) were resolved by 12% SDS-PAGE and subjected to Western blot analyses using ECL system (Amersham-Pharmacia). Screening Western blots for TP-α and TP-β isoform expression in bladder cancer cell lines was done using rabbit polyclonal antibodies against TP-α or TP-β (described above). SVHUC cells stably transfected with TP-α or TP-β plasmids were screened for PCNA, tubulin, GAPDH, FAK, pFAK, ERK, pERK protein (Santa Cruz) and ICAM-1 (Abcam).

[5] = biological target: T1, TP-β (Homo sapiens, UniProt P21731); experiment: Phosphorylation of ERK and FAK in SV-HUC cells transfected with TP-β; format: cell-based
T1 construct: expressed in transfected cells
Method: (§3) FIG. 7. Effects of U46619 and PTXA2 on phosphorylation of ERK and FAK. SV-HUC cells transfected with pcDNA3, TP-α or TP-β data are representative of 3 experiments.
as §2
SV-HUC cells were grown to 80% confluence and transfected with 2 μg of pcDNA3 vector encoding either the TP-α or TP-β receptor isoforms. Transfection was performed in 6-well plates using the Fugene reagent (Roche) according to the manufacturer's instructions. After 72 hours post-transfection, cells were selected with 500 μg/ml G418 (Roche) and stable pools isolated after 14 days.

[6] = test system: SV-HUC cells; experiment: Western blot of FAK and ERK phosphorylation in SV-HUC cells; format: cell-based, human; settings: SV-HUC cells (TP-α expressor), not transfected
Method: as §2

[7] = test system: TCC-SUP human bladder cancer xenografts; experiment: Xenograft mouse model, subcutaneous TCC-SUP in nu/nu mice; format: in vivo
Method: FIGS. 9A-B. TP receptor antagonist inhibits bladder cancer tumor growth. (FIG. 9A) Anti-tumor effects of GR32191 and cisplatin treatment in immunocompromised mice. Subcutaneous TCC-SUP human bladder cancer xenografts in nude mice were treated with vehicle control (12 mice), GR32191 (15 mice), 5 mg/kg cisplatin (cisplatin high) (12 mice), 5 mg/kg cisplatin in combination with GR32191 (13 mice), or 0.5 mg/kg (single low dose cisplatin) alone (10 mice) or 0.5 mg/kg cisplatin in combination with GR32191 (10 mice). Tumor size was measured over time. Kaplan-Meier curves showing time to tumor onset across the treatment groups. (FIG. 9B) Pathological evaluation of tumors derived from mice treated with GR32191 (n=15) and vehicle control mice (n=12). Representative images of CD31 staining, TUNEL, staining, PCNA staining, and H&E staining are shown. Graphs on the left indicate the quantitative analysis for each of these markers. Five fields from 5 independent tumors (total 25) were counted and scored blindly. Statistically significant (p<0.05) differences compared to vehicle alone were indicated (++p<0.001 or +p<0.05).
Antigen retrieval was done by heating in a microwave oven for 5 min on high power in 10 mM citrate, pH 6.0. Sections were washed and nonspecific binding was blocked with 10% horse serum in Tris-buffered saline (TBS) (50 mM Tris-HCl, 0.9% NaCl, pH 8.0) for 20 min, then incubated overnight at 4° C. with the TP isoform-specific primary antibodies at a 1:200 dilution in the blocking solution, anti-CD31 antibody (DAKO) was used at dilution 1:25. After overnight incubation at 4° C. followed by three 10-min washes in TBS. Immpress™ horse anti-rabbit secondary was incubated (Vector Laboratories, Burlingame, Calif.) for 45 min at room temperature. Slides were counterstained with hematoxylin. PCNA staining was done utilizing mouse monoclonal antibody against human PCNA (SantaCruz) at dilution 1:200. For TUNEL staining, sections were stained using the Situ Cell Death Detection Kit (Roche Applied Science).
TCC-SUP human bladder cancer cells or SV-HUC cells stably transfected with pcDNA3, TP-α or TP-β were used in a subcutaneous model in immunocompromised (nu/nu) mice. TCC-SUP cells (5×10^6 in PBS) or SV-HUC cells (5×10^7 in Matrigel™, BD Bioscience Inc.) were injected s.c. into the right and left flanks of anesthetized mice. Tumor growth was monitored in these mice twice a week. For mice injected with TCC-SUP, GR32191 or vehicle control was administered daily (20 mg/kg) by gavage with treatment initiated 24 hrs after initial injection. Two cycles of cisplatin (single high dose (5 mg/kg) or single low dose (0.5 mg/kg)) were administrated at day 4 and day 11 post tumor cell injection.
Kaplan-Meier survival curves were constructed for overall mouse survival for two groups with and without over-expressed TP-β receptor protein. ANOVA was used to analyze the in vitro drug treatments and drug combination data. Data are presented as the mean±SD. For all statistical tests, a two-sided p-value<0.05 was used to reject the null hypothesis. Kaplan-Meier curves were used to describe time to tumor onset in each mouse group, and a Cox proportional hazards model was used to estimate and test for differences across treatment groups. Hazard ratios and their 95% confidence intervals were to describe rates of tumor onset and p-values used to compare tumor onset across groups. The proportional hazards assumption was tested using Schoenfeld residuals. Differences in tumor growth were assessed by comparing the slopes of tumor growth across groups based on a linear longitudinal two-stage analysis where slopes were estimated in stage 1 and compared across mice in stage 2. Linear regression coefficients were evaluated using Wald tests. Statistical analyses were performed using R statistical software and utilized the survival library.

[8] = test system: bladder cancer cells; experiment: Migration and invasion assays; format: cell-based, human
Method: Cell migration experiments were carried out using 8-μm pore size migration chambers (Falcon, Becton Dickinson) precoated at 4° C. overnight with fibronectin (Becton Dickinson) at a concentration of 5 μg per square centimeter in PBS. The following day, the fibronectin solution was aspirated and the migration chambers were rinsed one time with water and allowed to air dry prior to the migration experiment. Cell invasion experiments were carried out using re-hydrated 8-μm pore size invasion chambers precoated with Matrigel (Becton Dickinson). Cells at 80% confluence were trypsinized, harvested, and counted. For each condition, cells were seeded at 25,000 cells/well (T24) or 100,000 cells/well (SV-HUC) in 500 μl serum free media, then added to each migration and invasion chamber. Medium (750 μl) containing 10% serum was used as a chemoattractant in the lower chamber. Both upper and lower chambers contained the indicated compound. Cells were allowed to migrate for eight hours or invade for 24 hours at 37° C. in the presence of 5% CO2. […] Migrating and invading cells in 10 high power fields in each chamber were counted and the mean cell number was calculated. Each experiment was conducted in triplicate and repeated three times.

[9] = healthy individuals, patients with asthma or cardiovascular diseases, cited from earlier work
[10] = biological target: T2, TP-α (Homo sapiens, UniProt P21731); experiment: Phosphorylation of ERK and FAK in SV-HUC cells transfected with TP-α or pcDNA3; format: cell-based
T2 construct: expressed in transfected cells
T2 sequence (P21731 1-343): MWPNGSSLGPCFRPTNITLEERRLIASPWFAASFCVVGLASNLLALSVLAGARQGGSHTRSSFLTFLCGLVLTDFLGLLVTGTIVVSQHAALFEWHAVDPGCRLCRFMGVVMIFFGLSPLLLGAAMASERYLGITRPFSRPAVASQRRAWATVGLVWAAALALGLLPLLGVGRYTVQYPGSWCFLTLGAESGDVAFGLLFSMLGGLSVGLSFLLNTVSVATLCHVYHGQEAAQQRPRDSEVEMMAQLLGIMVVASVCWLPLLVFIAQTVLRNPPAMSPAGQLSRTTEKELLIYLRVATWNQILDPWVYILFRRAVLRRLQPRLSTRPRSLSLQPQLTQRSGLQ
Method: as §3, §2
SV-HUC cells were grown to 80% confluence and transfected with 2 μg of pcDNA3 vector encoding either the TP-α or TP-β receptor isoforms. Transfection was performed in 6-well plates using the Fugene reagent (Roche) according to the manufacturer's instructions. […]

[11] = test system: JNK1/2 and FOXO3a; experiment: Effect of U46619 on JNK1/2 and FOXO3a; format: cell-based; settings: agonist stimulation
Excerpt: as §1

[12] = biological target: T3, TP-β and PTEN (Homo sapiens, UniProt P21731); experiment: TP-β / PTEN co-immunoprecipitation and immunofluorescence; format: cell-based
T3 construct: endogenous in cells; host or cells: HT-1376 bladder cancer cells
Method: FIGS. 13A-D. TP-β receptor localization and interaction with PTEN. (FIG. 13A) Co-immunoprecipitation followed by Western blot analysis. Immunoprecipitation with TP-α or TP-β specific antibodies was performed using extracts prepared from HT-1376 cells. […] Extracts prepared from solvent or agonist treated cells were immunoprecipitated with TP-β specific antibody. […] After TP-β stimulation with the U46619, PTEN translocated from the cytoplasm to the nuclear membrane. (FIG. 13D) PTEN lipid phosphatase activity was diminished in SV-HUC cells transfected with TP-β compared to those transfected with TP-α.

[13] = vehicle treated mice compared to GR32191 treated mice

T1 sequence (P21731 1-407 isoform P21731-2): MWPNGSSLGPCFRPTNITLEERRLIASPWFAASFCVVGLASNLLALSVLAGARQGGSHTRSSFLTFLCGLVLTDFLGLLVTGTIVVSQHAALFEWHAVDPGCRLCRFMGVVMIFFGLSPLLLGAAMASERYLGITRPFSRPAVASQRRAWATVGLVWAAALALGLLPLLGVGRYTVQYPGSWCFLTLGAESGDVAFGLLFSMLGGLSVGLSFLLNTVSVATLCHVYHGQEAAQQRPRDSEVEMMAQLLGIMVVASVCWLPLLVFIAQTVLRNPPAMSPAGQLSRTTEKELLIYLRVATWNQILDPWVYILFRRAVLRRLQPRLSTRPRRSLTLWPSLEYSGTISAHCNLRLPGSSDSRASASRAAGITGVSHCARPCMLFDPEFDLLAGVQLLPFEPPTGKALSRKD
T3 sequence (P21731 1-407 isoform P21731-2): as above
T3 sequence (P60484 2-403 partner limits assumed): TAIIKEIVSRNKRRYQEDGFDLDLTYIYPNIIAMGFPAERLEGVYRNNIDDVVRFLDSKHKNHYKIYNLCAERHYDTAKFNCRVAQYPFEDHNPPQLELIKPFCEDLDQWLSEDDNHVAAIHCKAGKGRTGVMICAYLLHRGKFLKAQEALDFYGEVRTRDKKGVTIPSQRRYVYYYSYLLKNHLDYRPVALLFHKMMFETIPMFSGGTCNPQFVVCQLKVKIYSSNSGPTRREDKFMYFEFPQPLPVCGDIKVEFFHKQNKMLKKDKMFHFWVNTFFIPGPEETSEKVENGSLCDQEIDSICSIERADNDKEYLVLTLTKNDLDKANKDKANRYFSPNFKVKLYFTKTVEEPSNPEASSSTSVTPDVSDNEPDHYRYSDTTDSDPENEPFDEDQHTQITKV

SMILES: O=C(O)CCC/C=C\C[C@@H]1[C@H](CNNC(=O)Nc2ccccc2)[C@H]2CC[C@@H]1O2 [SQ29548]
- sensitivity to cisplatin [1]: enhanced sensitivity to cisplatin
- tumor cell death [2]: synergistically increased tumor cell death

SMILES: CCCCC[C@@H](O)/C=C/[C@H]1C[C@H]2C[C@@H]([C@@H]1C/C=C\CCCC(=O)O)C2(C)C [PTXA2]
- PTN mRNA expression ([3]; incubation with receptor antagonist): reduced PTN mRNA expression
- phospho-ERK and phospho-FAK levels [4]: reduction in the elevated basal levels; also recorded: significantly reduced
- U46619-stimulated increase in pERK1/2 and pFAK ([5]; SV-HUC cells transfected with TP-β, antagonist added): blocked
- basal levels of pFAK and pERK ([5]; TP-β transfected SV-HUC cells, data not shown): decreased the basal levels
- phospho-ERK and phospho-FAK levels [6]: no effect

SMILES: O=C(O)CC/C=C\CC[C@@H]1[C@@H](N2CCCCC2)[C@@H](O)C[C@@H]1OCc1ccc(-c2ccccc2)cc1 [GR32191]
- time of tumor free mice ([7]; 20 mg/kg daily by gavage): significantly (P<0.04) extended
- tumor growth ([7]; 20 mg/kg daily by gavage, monitored over time): significantly inhibited
- detection of palpable tumors / time of tumor onset ([7]; 20 mg/kg daily by gavage, started 24 hrs after cell injection): delayed
- survival ([7]; GR32191 alone): prolonged survival
- survival ([7]; GR32191 in combination with cisplatin): prolonged survival
- apoptosis, TUNEL staining ([7]; GR32191 treated compared to vehicle treated mice, p<0.05): significant increase in apoptosis
- microvessel density (MVD), CD31 staining ([7]; vehicle control compared to mice treated with GR32191): significantly higher (p<0.05) microvessel density
- cell proliferation, PCNA staining [7, 13]: significantly increased (p<0.05) cell proliferation
- percentage of undifferentiated tumors, H&E staining [7, 13]: significantly higher percentage (p<0.01) of undifferentiated tumors
- inhibition of cell migration and invasion ([8]; complementary studies, data not shown): 65%
- sensitivity to cisplatin [1]: enhanced sensitivity to cisplatin
- tumor cell death [2]: synergistically increased tumor cell death
- safety in clinical studies [9]: shown to be safe
- safety in clinical studies ([9]; listed as GR): excellent safety profile

- phosphorylation of FAK and ERK on agonist stimulation [10]: failed to stimulate
- PTN expression ([3]; co-incubation of agonist with PTXA2): restored
- localization of TP-β and PTEN proteins ([12]; immunofluorescence, in the presence of agonist): translocated to the nuclear membrane
SMILES: CCCCC[C@H](O)/C=C/[C@@H]1[C@@H](C/C=C\CCCC(=O)O)[C@H]2CO[C@@H]1C2 [U46619]
- cell migration ([8]; T-24 cells, transwell migration assay, 1 μM U46619 for 12 hours): increase in migration
- JNK1/2 activation [11]: induced JNK1/2 activation
- expression of the transcription factor FOXO3a [11]: reduced the expression
- association between TP-β and PTEN ([12]; immunoprecipitation with TP-β specific antibody, agonist versus solvent treated cells): Increased association between TP-β and PTEN
- phospho-ERK and phospho-FAK levels [4]: significantly increased; also recorded: increased phosphorylation
- phosphorylation of FAK and ERK on agonist stimulation ([5]; SV-HUC cells transfected with TP-β): stimulated pERK1/2 and pFAK; also recorded: stimulated the phosphorylation of FAK and ERK

From US8551489B2, “Methods for the treatment of cancers” (MUSC Foundation for Research Development, priority 2008, dated 2013)
